Data published in PubChem BioAssay AID234 (DTP/NCI, 2004).
Several values for one entry are separate records, joined by “and”; a condition that tells them apart may be missing. Equal entries are not always repeated. Results filed as inconclusive are left out.

System: C3AKF1 mice, hamster liver cystadenocarcinoma s.c., tumor weight T/C
Experiment: NCI In Vivo Anticancer Drug Screen. Data for tumor model Cystadenocarcinoma, Liver (No. 1) (Hamster) (subcutaneous) in C3AKF1 (CHKRF1) mice
Conditions: endpoint: mean tumor weight, higher = larger tumour
Description: The antitumor activity of compounds was measured in mice bearing transplantable tumors. Survival or tumor size were measured and the results are expressed as the measurement made in the treated group (T) divided by the measurement made in the vehicle treated control group (C). The tumor model used in this assay is Cystadenocarcinoma, Liver (No. 1) (Hamster) (subcutaneous) in C3AKF1 (CHKRF1) mice

[1] = dose: 3.0 mg/kg/injection, schedule: Q01DX010 (ip), vehicle: carboxymethylcellulose (CMC)
[2] = dose: 125.0 mg/kg/injection, schedule: Q01DX010 (ip), vehicle: carboxymethylcellulose (CMC)
[3] = dose: 250.0 mg/kg/injection, schedule: Q01DX010 (ip), vehicle: carboxymethylcellulose (CMC)
[4] = dose: 25.0 mg/kg/injection, schedule: Q01DX010 (ip), vehicle: carboxymethylcellulose (CMC)
[5] = dose: 15.0 mg/kg/injection, schedule: Q01DX010 (ip), vehicle: carboxymethylcellulose (CMC)
[6] = dose: 50.0 mg/kg/injection, schedule: Q01DX010 (ip), vehicle: saline
[7] = dose: 100.0 mg/kg/injection, schedule: Q01DX010 (ip), vehicle: saline
[8] = dose: 200.0 mg/kg/injection, schedule: Q01DX010 (ip), vehicle: saline
[9] = dose: 50.0 mg/kg/injection, schedule: Q01DX010 (ip), vehicle: carboxymethylcellulose (CMC)
[10] = dose: 100.0 mg/kg/injection, schedule: Q01DX010 (ip), vehicle: carboxymethylcellulose (CMC)
[11] = dose: 45.0 mg/kg/injection, schedule: Q01DX010 (ip), vehicle: carboxymethylcellulose (CMC)
[12] = dose: 62.5 mg/kg/injection, schedule: Q01DX010 (ip), vehicle: carboxymethylcellulose (CMC)
[13] = dose: 37.5 mg/kg/injection, schedule: Q01DX010 (ip), vehicle: carboxymethylcellulose (CMC)
[14] = dose: 30.0 mg/kg/injection, schedule: Q01DX010 (ip), vehicle: carboxymethylcellulose (CMC)
[15] = dose: 60.0 mg/kg/injection, schedule: Q01DX010 (ip), vehicle: carboxymethylcellulose (CMC)
[16] = dose: 75.0 mg/kg/injection, schedule: Q01DX010 (ip), vehicle: carboxymethylcellulose (CMC)
[17] = dose: 150.0 mg/kg/injection, schedule: Q01DX010 (ip), vehicle: carboxymethylcellulose (CMC)
[18] = dose: 300.0 mg/kg/injection, schedule: Q01DX010 (ip), vehicle: carboxymethylcellulose (CMC)
[19] = dose: 400.0 mg/kg/injection, schedule: Q01DX010 (ip), vehicle: carboxymethylcellulose (CMC)

In the case of `Cc1nc(N)nc(N)c1-c1ccc(Cl)c(Cl)c1`, the T/C (dose: 0.75 mg/kg/injection, schedule: Q01DX010 (ip), vehicle: carboxymethylcellulose (CMC)) was 83 % of control, the T/C (dose: 1.5 mg/kg/injection, schedule: Q01DX010 (ip), vehicle: carboxymethylcellulose (CMC)) was 106 % of control and the T/C [1] was 100 % of control.

`C=CCNc1ccc(C)cc1` was tested, and the T/C (dose: 85.0 mg/kg/injection, schedule: Q01DX010 (ip), vehicle: saline) was 64 % of control, the T/C (dose: 125.0 mg/kg/injection, schedule: Q01DX010 (ip), vehicle: saline) was 91 % of control and the T/C (dose: 185.0 mg/kg/injection, schedule: Q01DX010 (ip), vehicle: saline) was 78 % of control.

`COc1cc(OC)c(OC)cc1/C=C\c1ccnc2ccccc12` was tested, and the T/C (dose: 63.0 mg/kg/injection, schedule: Q01DX010 (ip), vehicle: carboxymethylcellulose (CMC)) was 104 % of control, the T/C [2] was 97 % of control and the T/C [3] was 95 % of control.

In the case of `Nc1nc(SCc2ccccc2Cl)c2ncn(C3OC(CO)C(O)C3O)c2n1` (stereo not drawn), the T/C (dose: 6.0 mg/kg/injection, schedule: Q01DX010 (ip), vehicle: carboxymethylcellulose (CMC)) was 104 % of control, the T/C (dose: 12.0 mg/kg/injection, schedule: Q01DX010 (ip), vehicle: carboxymethylcellulose (CMC)) was 85 % of control and the T/C [4] was 112 % of control.

`CCn1cnc2c(=S)nc(N)[nH]c21` was tested, and the T/C [1] was 115 % of control, the T/C (dose: 7.0 mg/kg/injection, schedule: Q01DX010 (ip), vehicle: carboxymethylcellulose (CMC)) was 107 % of control and the T/C [5] was 59 % of control and 70 % of control.

For `CNC=O`, the T/C [6] was 39 % of control, the T/C [7] was 34 % of control and the T/C [8] was 20 % of control.

In the case of `CCc1c(CC(=O)O)c2cc(C)ccc2n1Cc1ccc(Cl)cc1`, the T/C [9] was 70 % of control and the T/C [10] was 96 % of control.

In the case of `CC(C)CCSc1nc(N)nc2nc[nH]c12`, the T/C [11] was 74 % of control, the T/C (dose: 90.0 mg/kg/injection, schedule: Q01DX010 (ip), vehicle: carboxymethylcellulose (CMC)) was 70 % of control and the T/C (dose: 180.0 mg/kg/injection, schedule: Q01DX010 (ip), vehicle: carboxymethylcellulose (CMC)) was 94 % of control.

For `O=C(O)CCc1c[nH]c2ccc(N(CCCl)CCCl)cc12`, the T/C (dose: 1.2 mg/kg/injection, schedule: Q01DX010 (ip), vehicle: carboxymethylcellulose (CMC)) was 109 % of control, the T/C (dose: 2.5 mg/kg/injection, schedule: Q01DX010 (ip), vehicle: carboxymethylcellulose (CMC)) was 97 % of control and the T/C (dose: 5.0 mg/kg/injection, schedule: Q01DX010 (ip), vehicle: carboxymethylcellulose (CMC)) was 77 % of control. The T/C (dose: 10.0 mg/kg/injection, schedule: Q01DX010 (ip), vehicle: carboxymethylcellulose (CMC)) was 69 % of control.

In the case of `C1CC[N-]CC1.C1CC[N-]CC1.C1CC[N-]CC1.C1CC[N-]CC1.[Cl][Co][Cl]`, the T/C (dose: 35.0 mg/kg/injection, schedule: Q01DX010 (ip), vehicle: saline) was 84 % of control, the T/C (dose: 55.0 mg/kg/injection, schedule: Q01DX010 (ip), vehicle: saline) was 82 % of control and the T/C (dose: 80.0 mg/kg/injection, schedule: Q01DX010 (ip), vehicle: saline) was 71 % of control.

`COc1ccc2c(c1OC)C(=O)O[C@@H]2[C@H]1c2c(cc3c(c2OC)OCO3)CCN1C` was tested, and the T/C [6] was 102 % of control, the T/C [7] was 88 % of control and the T/C [8] was 92 % of control.

For `CC(Cl)CN(Cc1cc(O)c(CN(CC(C)Cl)CC(C)Cl)cc1O)CC(C)Cl` (stereo not drawn), the T/C [12] was 64 % of control.

For `CC(C)NCC(=O)c1ccc(O)c(O)c1`, the T/C [6] was 75 % of control, the T/C [7] was 59 % of control and the T/C [8] was 90 % of control.

In the case of `Cc1ccc(N=NN(C)C)cc1`, the T/C [4] was 96 % of control and the T/C [9] was 93 % of control.

For `CCCCCCCCCCCC[n+]1cccc2ccccc21`, the T/C (dose: 0.25 mg/kg/injection, schedule: Q01DX010 (ip), vehicle: carboxymethylcellulose (CMC)) was 73 % of control, the T/C (dose: 0.5 mg/kg/injection, schedule: Q01DX010 (ip), vehicle: carboxymethylcellulose (CMC)) was 81 % of control and the T/C (dose: 1.0 mg/kg/injection, schedule: Q01DX010 (ip), vehicle: carboxymethylcellulose (CMC)) was 91 % of control.

For `NC(=O)/C=C/C(=O)O` (tested in a mixture with another compound), the T/C (dose: 31.0 mg/kg/injection, schedule: Q#A X010 (ip), vehicle: saline) was 68 % of control.

`CC(C)(c1ccccc1)c1ccc(O)cc1` was tested, and the T/C [13] was 79 % of control.

With `CS(=O)(=O)OCCCOS(C)(=O)=O` the T/C [5] was 53 % of control, the T/C [14] was 79 % of control and the T/C [15] was 53 % of control.

`O=C(C[N+]12CN3CN(CN(C3)C1)C2)c1ccc(Cl)cc1` was tested, and the T/C [13] was 99 % of control, the T/C [16] was 109 % of control and the T/C [17] was 90 % of control. The T/C [18] was 69 % of control.

In the case of `Cc1ccc(N2CCN(CCCN3CCN(c4ccc(Cl)cc4)CC3)CC2)cc1`, the T/C (dose: 7.5 mg/kg/injection, schedule: Q01DX010 (ip), vehicle: carboxymethylcellulose (CMC)) was 94 % of control, the T/C [5] was 98 % of control and the T/C [14] was 94 % of control.

For `CCN(CC)CCNc1ccc([N+](=O)[O-])c2sc3ccccc3c(=O)c12`, the T/C (dose: 20.0 mg/kg/injection, schedule: Q01DX010 (ip), vehicle: saline) was 98 % of control and the T/C (dose: 40.0 mg/kg/injection, schedule: Q01DX010 (ip), vehicle: saline) was 70 % of control.

For `CC(=O)NCCSC(=O)C(=O)SCCNC(C)=O`, the T/C [4] was 72 % of control, the T/C [9] was 111 % of control and the T/C [10] was 65 % of control.

`C/C=C1\CN(C)[C@H]2Cc3c([nH]c4ccccc34)[C@@H](c3cc4[nH]c5c(c4cc3OC)CCN3C[C@H]4C[C@H](CC)[C@H]3[C@@]5(C(=O)OC)C4)C[C@H]1C2C(=O)OC` (stereo partly drawn) was tested, and the T/C (dose: 30.0 mg/kg/injection, schedule: Q01DX010 (ip), vehicle: water) was 70 % of control.

For `O=C(O)Cc1ccc(C2CCCCC2)cc1`, the T/C [13] was 118 % of control, the T/C [16] was 115 % of control and the T/C [17] was 114 % of control and 121 % of control. The T/C [18] was 94 % of control.

In the case of `CCC(=O)NC1=C(N2CC2)C(=O)C(NC(=O)CC)=C(N2CC2)C1=O`, the T/C (dose: 0.6 mg/kg/injection, schedule: Q01DX010 (ip), vehicle: saline) was 97 % of control and the T/C (dose: 1.2 mg/kg/injection, schedule: Q01DX010 (ip), vehicle: saline) was 76 % of control.

`CCCCCCCCCC(C)(O)C#CC(C)(O)CCCCCCCCC` (stereo not drawn) was tested, and the T/C (dose: 12.5 mg/kg/injection, schedule: Q01DX010 (ip), vehicle: carboxymethylcellulose (CMC)) was 86 % of control, the T/C [4] was 74 % of control and the T/C [9] was 96 % of control. The T/C [10] was 64 % of control.

In the case of `O=c1[nH]c2cc(Cl)c(Cl)cc2o1`, the T/C (dose: 9.5 mg/kg/injection, schedule: Q01DX010 (ip), vehicle: carboxymethylcellulose (CMC)) was 119 % of control, the T/C (dose: 19.0 mg/kg/injection, schedule: Q01DX010 (ip), vehicle: carboxymethylcellulose (CMC)) was 104 % of control and the T/C [13] was 95 % of control and 107 % of control. The T/C [16] was 98 % of control.

With `COc1ccccc1NC(=O)CSC(N)=O` the T/C [9] was 92 % of control, the T/C [10] was 86 % of control and the T/C (dose: 200.0 mg/kg/injection, schedule: Q01DX010 (ip), vehicle: carboxymethylcellulose (CMC)) was 95 % of control. The T/C [19] was 38 % of control.

With `O=c1[nH]cnc2n[nH]nc12` the T/C [12] was 112 % of control, the T/C [2] was 77 % of control and the T/C [3] was 60 % of control. The T/C (dose: 500.0 mg/kg/injection, schedule: Q01DX010 (ip), vehicle: carboxymethylcellulose (CMC)) was 68 % of control.

For `O=c1c[n+](-c2ccccc2)[nH]o1`, the T/C (dose: 22.5 mg/kg/injection, schedule: Q01DX010 (ip), vehicle: carboxymethylcellulose (CMC)) was 66 % of control and the T/C [11] was 41 % of control.

With `O=C1N(Cl)C(=O)C(c2ccc(Cl)cc2)(c2ccc(Cl)cc2)N1Cl` the T/C [5] was 67 % of control, the T/C [14] was 85 % of control and the T/C [15] was 61 % of control.

For `CCN(CC)CCN1C(=O)c2cccc3cccc(c23)C1=O`, the T/C (dose: 25.0 mg/kg/injection, schedule: Q01DX010 (ip), vehicle: saline) was 90 % of control, the T/C [6] was 163 % of control and the T/C [7] was 109 % of control.

For `CCCn1cnc2c(SCc3ccccc3Cl)nc(N)nc21`, the T/C [4] was 88 % of control, the T/C [10] was 90 % of control and 105 % of control and the T/C [19] was 96 % of control.
